Our source for the LogP values is patent US12642270B2, “Substituted thiophene carboxamides, thiophene carboxylic acids and derivatives thereof” (Bayer Aktiengesellschaft, priority 2019, dated 2026).

The nature of the first series: Log P by HPLC on reversed phase columns (EEC directive 79/831 Annex V.A8). The class given is physicochemical. The following applies: LogP method [a]; compounds of formula (I), Table 1.1. The method in brief: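 Reversed-phase HPLC per EEC 79/831 Annex V.A8, LC-UV with 10→95% acetonitrile linear gradient; eluent [a] 0.1% formic acid (acidic), [b] 0.001 M ammonium acetate (neutral), [c] 0.1% phosphoric acid (acidic). Calibrated with C3–C16 straight-chain alkan-2-ones, linear interpolation of retention times; multiple values joined by "+".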
`CCOC(=O)C(NC(=O)c1sc(Cl)c(Cl)c1C(F)F)C(C)C` (stereo not shown) [1.0418]: the LogP was 4.13^[a]. Still for that read-out and setting: then `CCOC(=O)C(CC(C)C)NC(=O)c1cc(F)c(Br)s1` (stereo not shown) [1.0435], with 3.80^[a]. With `CCOC(=O)C1(NC(=O)c2cc(C#N)c(Br)s2)CC1` [1.0401], the LogP is 2.30^[a]. Still for that read-out and setting: then `CCOC(=O)CNC(=O)c1sc(Br)c(C#N)c1Br` [1.0407], with 2.61^[a].

Still in this series, the particulars now being: method [a].
Take `CCOC(=O)C(CC(C)C)NC(=O)c1sc(Br)c(Cl)c1Cl` (stereo not shown) [1.0202]: the LogP is 5.16^[a]. With `Cc1c(C(=O)NC2(C(=O)O)CC2)sc(Cl)c1Br` [1.0170], the LogP is 2.21^[a]. On the same count and under the same terms, then `COC(=O)C1(NC(=O)c2cc(Cl)c(F)s2)CC1` [1.0901], with 2.13^[a]; and `CCOC(=O)[C@H](CO)NC(=O)c1sc(Br)c(Br)c1C` [1.0843], with 2.64^[a]. On the same count and under the same terms, the value for `CCOC(=O)C(NC(=O)c1sc(Cl)c(Br)c1F)C(C)C` (stereo not shown) [1.0639] was 4.40^[a]; that for `N#Cc1sc(C(=O)NCC(N)=O)c(Cl)c1Cl` [1.0796] was 1.48^[a].

In the case of `CCOC(=O)C1(NC(=O)c2sc(C#N)c(Br)c2Cl)CC1` [1.0606], the LogP was 2.79^[a].

In the case of `CCOC(=O)[C@H](CO)NC(=O)c1sc(C#N)c(Cl)c1C` [1.0833], the LogP is 2.07^[a]. Same read-out and setting: the value for `CCOC(=O)C(Cc1ccccc1)NC(=O)c1sc(C#N)c(Br)c1Cl` (stereo not shown) [1.0586] was 4.13^[a]; that for `COC(=O)C1(NC(=O)c2sc(C)c(Cl)c2Cl)CC1` [1.0897] was 2.67^[a]. The same measure, in the same setting: the value for `CC(C)OC(=O)C(NC(=O)c1sc(Br)c(Br)c1Cl)C1CC1` (stereo not shown) [1.0886] was 4.89^[a]. As to `CCCOC(=O)C1(NC(=O)c2sc(Cl)c(Br)c2C#N)CC1` [1.0631], the LogP was 3.06^[a]. On the same count and under the same terms, then `COC(=O)C(CC(F)F)NC(=O)c1sc(Br)c(Cl)c1Cl` (stereo not shown) [1.0201], with 3.60^[a]; and `CCOC(=O)CN(C)C(=O)c1sc(Br)c(Br)c1F` [1.0167], with 3.09^[a]. In the case of `CCOC(=O)C(Cc1c[nH]c2ccccc12)NC(=O)c1sc(Br)c(Br)c1F` (stereo not shown) [1.0137], the LogP was 4.08^[a]. Still for that read-out and setting: then `CCOC(=O)[C@H](CO)NC(=O)c1sc(Cl)c(Cl)c1C#N` [1.0830], with 2.22^[a]; and `COC(=O)C1(NC(=O)c2sc(Br)c(Br)c2F)CC(F)(F)C1` [1.0622], with 3.37^[a]; and `CCOC(=O)C(NC(=O)c1sc(Cl)c(Br)c1Cl)C(C)C` (stereo not shown) [1.0183], with 4.97^[a].

Take `COC(=O)C(NC(=O)c1sc(Cl)c(Cl)c1Br)C1CC1` (stereo not shown) [1.0263]: the LogP was 3.84^[a]. In the case of `COC(=O)C1(NC(=O)c2sc(Br)c(Br)c2F)CC1` [1.0539], the LogP is 2.09^[a]. With `O=C(NC1(C(=O)OCC2CC2)CCC1)c1sc(Cl)c(Cl)c1Br` [1.0905], the LogP was 4.78^[a].

Still in this series, the particulars now being: method [a]: LC-UV, acidic range, 0.1% formic acid in water and acetonitrile.
For the compound `Cc1cc(C(=O)O)sc1Cl` [II.038], the LogP is 2.16^[a].

Take `O=C(N[C@H]1CCOC1=O)c1sc(Cl)c(Cl)c1Br` [I.0931]: the LogP was 2.59^[a]. Still for that read-out and setting: the value for `COC(=O)c1sc(C#N)c(Cl)c1Cl` [II.079] was 2.99^[a]. Same read-out and setting: the value for `O=C(O)c1sc(Br)c(Cl)c1F` [II.009] was 2.18^[a]; that for `O=C(NC1CCOC1=O)c1cc(Br)c(Cl)s1` (stereo not shown) [I.0224] was 2.14^[a].

As for `COC(=O)c1sc(Br)c(C#N)c1C` [II.029], the LogP is 3.06^[a]. On the same count and under the same terms, the value for `CCOC(=O)C(C)(C)NC(=O)C(C)(C)NC(=O)c1sc(Cl)c(Br)c1Br` [I.0699] was 3.94^[a]; that for `Cc1sc(C(=O)O)c(Cl)c1Cl` [II.065] was 2.49^[a]. Still for that read-out and setting: then `COC(=O)[C@H](Cc1ccccc1)NC(=O)[C@H](CC(=O)O)NC(=O)c1sc(Br)c(Br)c1Cl` [I.0488], with 3.20^[a]. As for `CCOC(=O)c1sc(F)c(Br)c1Cl` [II.066], the LogP is 4.02^[a].

`O=C1CC(NC(=O)c2cc(Cl)c(Br)s2)CCN1` (stereo not shown) [I.0219]: the LogP is 1.77^[a].

Staying with this series, now noted: method [a]: LC-UV, acidic range, 0.1% formic acid in water and acetonitrile; listed as 1.0060.
For `O=C(NC1CCOC1=O)c1sc(Br)c(Br)c1F` (stereo not shown) [I.0060], the LogP is 2.25^[a].

The series is the same for the next values; noted with them: method [a]; compounds of formula (I), Table 1.1.
For `CCOC(=O)CCNC(=O)c1sc(Br)c(I)c1C` [1.0088], the LogP was 3.23^[a]. Same read-out and setting: then `COC(=O)C(CC(F)F)NC(=O)c1sc(Cl)c(Br)c1C` (stereo not shown) [1.0068], with 3.33^[a]. Same read-out and setting: then `COC(=O)C(Cc1c[nH]cn1)NC(=O)c1sc(Br)c(Cl)c1C` (stereo not shown) [1.0129], with 1.47^[a]; and `CCOC(=O)C(CC(C)C)NC(=O)c1sc(I)c(Br)c1C` (stereo not shown) [1.0102], with 4.56^[a]; and `CCOC(=O)C(NC(=O)c1sc(I)c(Br)c1C)C(C)C` (stereo not shown) [1.0100], with 4.30^[a]. On to `CCOC(=O)C(CCSC)NC(=O)c1sc(Br)c(I)c1C` (stereo not shown) [1.0094], for which the LogP is 4.03^[a]. Still for that read-out and setting: the value for `C=CC1CC1(NC(=O)c1sc(Br)c(Br)c1F)C(=O)OC` (mixture of isomers) [1.0008] was 3.37^[a]; that for `CCOC(=O)C1(NC(=O)c2sc(Br)c(Cl)c2C)COC1` [1.0041] was 2.84^[a]; that for `CCOC(=O)C(CCSC)NC(=O)c1sc(Br)c(Cl)c1C` (stereo not shown) [1.0079] was 3.94^[a]. The same measure, in the same setting: then `COC(=O)C(CC(F)F)NC(=O)c1cc(F)c(Br)s1` (racemic) [1.0004], with 2.68^[a].

The same series, now with this note: method marked [a].
`COC(=O)C(NC(=O)c1sc(Cl)c(Cl)c1C(F)F)C(=O)OC` [1.0748]: the LogP is 3.00^[a]. Consider `C#CCOC(=O)C1(NC(=O)c2sc(Cl)c(Cl)c2C#N)CC1` [1.0785], for which the LogP was 2.65^[a]. The same measure, in the same setting: then `CCOC(=O)C(Cc1ccccc1)NC(=O)c1cc(Cl)c(C#N)s1` (stereo not shown) [1.0391], with 3.48^[a]; and `COC(=O)C1(NC(=S)c2cc(Br)c(C#N)s2)CC1` [1.0336], with 3.03^[a]; and `CCOC(=O)C(C#N)NC(=O)c1sc(Cl)c(Cl)c1C` (stereo not shown) [1.0758], with 3.23^[a].

On to `CCOC(=O)C1(NC(=O)c2sc(F)c(Br)c2C)CC1` [1.0318], for which the LogP was 2.83^[a]. Still for that read-out and setting: then `CCOC(=O)C1(NC(=O)c2sc(F)c(Br)c2Br)CCC1` [1.0713], with 3.88^[a]; and `COC(=O)[C@H](CCSC)NC(=O)c1sc(Cl)c(Br)c1C` [1.0767], with 3.74^[a]. On the same count and under the same terms, then `COC(=O)C(CCSC)NC(=O)c1sc(Br)c(Br)c1C#N` (stereo not shown) [1.0778], with 3.37^[a]. On to `CCOC(=O)C(C)NC(=O)c1sc(Br)c(Br)c1C(F)(F)F` (stereo not shown) [1.0369], for which the LogP is 3.35^[a]. `N#CCNC(=O)c1sc(Cl)c(Cl)c1C#N` [1.0688]: the LogP was 2.04^[a]. The same measure, in the same setting: the value for `COC(=O)C(NC(=O)c1sc(Br)c(C#N)c1Cl)C1CC1` (stereo not shown) [1.0676] was 2.99^[a]. On the same count and under the same terms, then `CCOC(=O)C(NC(=O)c1sc(F)c(Cl)c1C)C(C)C` (stereo not shown) [1.0299], with 3.87^[a]; and `CCOC(=O)C(CCSC)NC(=O)c1cc(Br)c(F)s1` (stereo not shown) [1.0314], with 3.31^[a].

The same series, now with this note: method marker [a] given with each value; Table 1.1, compounds of formula (I).
Regarding `COC(=O)[C@H](CCC(=O)O)NC(=O)c1sc(Cl)c(Cl)c1Br` [1.1050], the LogP is 2.68^[a]. The same measure, in the same setting: then `CCOC(=O)C(CO)NC(=O)c1sc(Cl)c(Cl)c1C(F)F` (stereo not shown) [1.1068], with 2.67^[a]; and `Cc1c(C(=O)NC2(C(=O)OCC(C)C)CC2)sc(C#N)c1Br` [1.0970], with 3.33^[a].
